Results published in patent publication US11753408B2, “Compounds and method for blocking transmission of malarial parasite” (The United States of America, as represented by the …, priority 2016, dated 2023).
Like-named read-outs stand apart in the source and are kept apart here.

Legend:
[1] = tested on: Stage III-V gametocytes (blood stage P. falciparum parasites); assay: In vitro drug activity on gametocytes (AlamarBlue viability assay); format: cell-based, Plasmodium falciparum; conditions: P. falciparum stage III-V gametocytes, 72 h incubation, AlamarBlue; read-out: Gametocyte EC50
Description: Cell culture. Asexual parasites of P. falciparum strain 3D7 were cultured as described previously [Trager W, et al., Journal of Parasitology 2005, 91: 484-486], Stage III-V gametocytes were selected and enriched with 3-day treatment with 50 mM N-acetylglucosamine (NAG) and the following Percoll density gradient centrifugation after gametocyte production [Tanaka T Q, et al., Molecular and Biochemical Parasitology, 2011, 111: 160-163], Gametocytes of HB3 and Dd2 strains were produced and then set up for assay in a similar process. HepG2 cells (ATCC, cat. no. 77400) were cultured in 175-cm^2 tissue culture flasks with 30 ml growth medium at 37° C. in a 5% CO2 humidified atmosphere. Growth medium was made with Dulbecco's Modified Eagle Medium with 10% fetal bovine serum (FBS). Growth medium was replaced every other day and cells were passed at 75% confluence.
Compound screening experiments were performed as previously described [Tanaka T Q et al., Molecular and Biochemical Parasitology, 2013, 3188: 20-25], Briefly, 2.5 μl/well incomplete medium was dispensed into each well of 1,536-well plates using the Multidrop Combi followed by 23 nl compound transferring using the NX-TR Pintool (WAKO Scientific Solutions, San Diego, Calif.). 2.5 μl/well of gametocytes was dispensed with a seeding density of 20,000 cells/well using the Multidrop Combi. The assay plates were incubated for 72 h at 37° C. with 5% CO2. After addition of 5 μl/well of 2× AlamarBlue dye (Life Technologies, cat. no. DALI 100), the plates were incubated for 24 h at 37° C. with 5% CO2 and were read in a fluorescence detection mode (Ex=525 nm, Em=598 nm) on a ViewLux plate reader (PerkinElmer).
Stage III-V gametocytes (blood stage P. falciparum parasites) were enriched with treatment with 50 mM N-acetylglucosamine (NAG) and Percoll density gradient centrifugation as described previously^1. Briefly, 2.5 μl/well incomplete medium was dispensed into each well of 1,536-well plates using the Multidrop Combi followed by 23 nl compound transfer using the NX-TR Pintool (WAKO Scientific Solutions, San Diego, Calif.). Then, 2.5 μl/well of gametocytes was dispensed with a seeding density of 20,000 cells/well using the Multidrop Combi. The assay plates were incubated for 72 h at 37° C. with 5% CO2. After addition of 5 μl/well of 2× AlamarBlue dye (Life Technologies, cat. no. DALI 100), the plates were incubated for 24 h at 37° C. with 5% CO2 and then were read in a fluorescence detection mode (Ex=525 nm, Em=598 nm) on a ViewLux plate reader (PerkinElmer).

[2] = tested on: Asexual parasites of P. falciparum strain 3D7; assay: In vitro drug activity on asexual parasites (SYBR Green assay); format: cell-based, Plasmodium falciparum
Method in brief: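 SYBR Green I fluorescence (ex 490, em 520 nm) was read after freeze-thaw lysis and 30 min staining at room temperature. Before that, drug-treated cultures (0.5% parasitemia, 2% hematocrit, DMSO ≤0.5%) were incubated 72 h, in duplicate.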

mTOR = mTOR (Homo sapiens, UniProt P42345); assay: mTOR activity (no method described); format: biochemical
[3] = Microsomal stability (rat); format: in vitro ADME; conditions: rat microsomes
Solubility at pH 7.4 = format: physicochemical
PAMPA permeability = format: in vitro ADME
[4] = P. falciparum 3D7 asexual parasites, 72 h, SYBR Green

Row | Structure (SMILES) | EC50 [1] | EC50 [2, 4] | EC50 [2] | mTOR (mTOR) | Microsomal Stability (rat) T1/2 [3] | Sol @ pH 7.4 (Solubility at pH 7.4) | PAMPA Permeability (PAMPA permeability)
1 | Nc1ccc(-c2ccc3ncc4ccc(=O)n(-c5ccc(S(=O)(=O)NC6CC6)cc5)c4c3c2)cn1 [Compound 82] | 167 nM | 150 nM | – | – | – | – | –
2 | O=C1Cc2cc(-n3c(=O)ccc4cnc5ccc(-c6ccc(Cl)cc6)cc5c43)ccc2N1 [Compound 346] | 48.4 nM | 18.6 nM | – | – | – | – | –
3 | N#Cc1cccc(-n2c(=O)ccc3cnc4ccc(-c5ccc(Cl)cc5)cc4c32)c1 [Compound 1] | 88.8 nM | 27.9 nM | – | – | – | – | –
4 | COc1ccc(C#N)cc1-n1c(=O)ccc2cnc3ccc(-c4ccc(Cl)cc4)cc3c21 [Compound 12] | 126 nM | 55.8 nM | – | – | – | – | –
5 | CCN1Cc2cc(-n3c(=O)ccc4cnc5ccc(-c6ccc(Cl)cc6)cc5c43)ccc2C1=O [Compound 351] | 2160 nM | 156 nM | – | – | – | – | –
6 | COc1ccc(C#N)cc1-n1c(=O)ccc2cnc3ccc(-c4ccc(CN(C)C)cc4)cc3c21 [Compound 14] | 425 nM | 113 nM | – | – | – | – | –
7 | CN(C)Cc1ccc(-c2ccc3ncc4ccc(=O)n(-c5ccc(S(C)(=O)=O)c(Cl)c5)c4c3c2)cc1 [Compound 63] | 342 nM | 147 nM | – | – | – | – | –
8 | N#Cc1cc(-n2c(=O)ccc3cnc4ccc(-c5ccc(F)cc5)cc4c32)ccc1N1CCNCC1 [Compound 15] | 521 nM | 730 nM | – | – | – | – | –
9 | Cc1cc(C(=O)NCCCN2CCCCC2)ccc1-n1c(=O)ccc2cnc3ccc(-c4ccc(Cl)cc4)cc3c21 [Compound 278] | – | – | 110 nM | 8 µM | 2.6 min | >83 ug/mL | 1380 ×10⁻⁶ cm/s
10 | Cc1cc(C(=O)NCCCN2CCN(C)CC2)ccc1-n1c(=O)ccc2cnc3ccc(-c4ccc(Cl)cc4)cc3c21 [Compound 282] | – | – | 71.4 nM | 4.536 µM | 4.1 min | >86 ug/mL | 598 ×10⁻⁶ cm/s
11 | CN(C)CCNC(=O)c1ccc(-n2c(=O)ccc3cnc4ccc(-c5ccc(Cl)cc5)cc4c32)cc1 [Compound 90] | – | – | 74.1 nM | 19.84 µM | >30 min | 13.6 ug/mL | 802 ×10⁻⁶ cm/s
12 | O=C(NCCN1CCC1)c1ccc(-n2c(=O)ccc3cnc4ccc(-c5ccc(Cl)cc5)cc4c32)cc1 [Compound 285] | – | – | 59.7 nM | 1.506 µM | >30 min | 41.6 ug/mL | 159 ×10⁻⁶ cm/s
13 | Cc1cc(C(=O)NCCCN2CCS(=O)(=O)CC2)ccc1-n1c(=O)ccc2cnc3ccc(-c4ccc(Cl)cc4)cc3c21 [Compound 289] | – | – | 86.7 nM | 9.216 µM | 1.7 min | <1 ug/mL | 141 ×10⁻⁶ cm/s
14 | O=C(NCC(F)(F)F)c1ccc(-n2c(=O)ccc3cnc4ccc(-c5ccc(Cl)cc5)cc4c32)cc1 [Compound 89] | – | – | 52.1 nM | 2.689 µM | >30 min | <1 ug/mL | < 1 ×10⁻⁶ cm/s
15 | O=C(c1ccc(-n2c(=O)ccc3cnc4ccc(-c5ccc(OC6CCNCC6)cc5)cc4c32)cc1)N1CCOCC1 [Compound 219] | – | – | 371 nM | 3.288 µM | >30 min | 6.3 ug/mL | 3.3 ×10⁻⁶ cm/s
16 | NC(=O)c1ccc(-n2c(=O)ccc3cnc4ccc(-c5ccc(Cl)cc5)cc4c32)cc1 [Compound 239] | – | – | 17.5 nM | 0.2422 µM | >30 min | <1 ug/mL | 79.9 ×10⁻⁶ cm/s

Row | Structure (SMILES) | EC50 [1] | EC50 [2, 4] | EC50 [2] | mTOR (mTOR) | Microsomal Stability (rat) T1/2 [3] | Sol @ pH 7.4 (Solubility at pH 7.4) | PAMPA Permeability (PAMPA permeability)
17 | Cc1cc(C(=O)NCCN(C)C)ccc1-n1c(=O)ccc2cnc3ccc(-c4ccc(Cl)cc4)cc3c21 [Compound 274] | – | – | 40.6 nM | 4.9 µM | 21.4 min | 63.8 ug/mL | 1010 ×10⁻⁶ cm/s
18 | Cc1cc(C(=O)NCCN2CCCC2)ccc1-n1c(=O)ccc2cnc3ccc(-c4ccc(F)cc4)cc3c21 [Compound 296] | – | – | 477 nM | 18.6 µM | 7.1 min | 0 ug/mL | 510 ×10⁻⁶ cm/s
19 | CCN(CC)CCNC(=O)c1ccc(-n2c(=O)ccc3cnc4ccc(-c5ccc(Cl)cc5)cc4c32)c(OC)c1 [Compound 249] | – | – | 576 nM | 14.76 µM | 7.9 min | >82 ug/mL | 1070 ×10⁻⁶ cm/s
20 | O=C(NC1CC1)c1ccc(-n2c(=O)ccc3cnc4ccc(-c5ccc(Cl)c(O)c5)cc4c32)cc1 [Compound 204] | – | – | 14.3 nM | 0.2571 µM | >30 min | <1 ug/mL | < 1 ×10⁻⁶ cm/s
21 | O=C(O)c1cc(Cl)ccc1-c1ccc2ncc3ccc(=O)n(-c4ccc(C(=O)N5CCOCC5)cc4)c3c2c1 [Compound 135] | – | – | 77800 nM | inactive | >30.0 min | >80.0 ug/mL | 3 ×10⁻⁶ cm/s
22 | CCCCNC(=O)c1ccc(-n2c(=O)ccc3cnc4ccc(-c5ccc(Cl)cc5)cc4c32)cc1 [Compound 209] | – | – | 538 nM | 2.492 µM | 4 min | <1 ug/mL | < 1 ×10⁻⁶ cm/s
23 | Cc1cc(C(=O)NCCN2CCCC2)ccc1-n1c(=O)ccc2cnc3ccc(-c4ccc(Cl)cc4)cc3c21 [Compound 295] | – | – | 162 nM | 23.74 µM | 10.6 min | 0 ug/mL | 639 ×10⁻⁶ cm/s
24 | O=C(NC1CCNC1)c1ccc(-n2c(=O)ccc3cnc4ccc(-c5ccc(Cl)cc5)cc4c32)cc1 (centres unmarked) [Compound 96] | – | – | 37.3 nM | 1.291 µM | >30 min | 11.4 ug/mL | 7.8 ×10⁻⁶ cm/s
25 | Cc1cc(C(=O)NCCCN(C)C)ccc1-n1c(=O)ccc2cnc3ccc(-c4ccc(Cl)cc4)cc3c21 [Compound 275] | – | – | 44.2 nM | 4.039 µM | 19.9 min | 65.6 ug/mL | 427 ×10⁻⁶ cm/s
26 | CN(C)CCc1ccc(-c2ccc3ncc4ccc(=O)n(-c5ccc(C(=O)NC6CC6)cc5)c4c3c2)cc1 [Compound 241] | – | – | 335 nM | 6.061 µM | >30 min | >74 ug/mL | 18.6 ×10⁻⁶ cm/s
27 | CC(C)(N)c1ccc(-c2ccc3ncc4ccc(=O)n(-c5ccc(C(=O)NC6CC6)cc5)c4c3c2)cc1 [Compound 246] | – | – | 1260 nM | 0.6459 µM | >30 min | >72 ug/mL | 1.5 ×10⁻⁶ cm/s
28 | COc1cc(C(=O)NCCN2CCCCC2)ccc1-n1c(=O)ccc2cnc3ccc(-c4ccc(Cl)cc4)cc3c21 [Compound 256] | – | – | 501 nM | 8.776 µM | 3.5 min | <1 ug/mL | 664 ×10⁻⁶ cm/s
29 | O=C(c1ccc(-n2c(=O)ccc3c[n+]([O-])c4ccc(-c5ccc(Cl)cc5)cc4c32)cc1)N(CCO)CCO [Compound 236] | – | – | 1200 nM | 50 µM | >30 min | >78 ug/mL | < 1 ×10⁻⁶ cm/s
30 | Cc1cc(C(=O)NCCN2CCN(C)CC2)ccc1-n1c(=O)ccc2cnc3ccc(-c4ccc(Cl)cc4)cc3c21 [Compound 277] | – | – | 82.5 nM | 3.631 µM | 3.8 min | 19.9 ug/mL | 354 ×10⁻⁶ cm/s
31 | Cc1cc(C(=O)NC2CC2)ccc1-n1c(=O)ccc2cnc3ccc(-c4ccc(F)c(O)c4)cc3c21 [Compound 222] | – | – | 22.8 nM | 0.8206 µM | 27.2 min | 7.1 ug/mL | 758 ×10⁻⁶ cm/s
